Source: patent publication US20120015977A1, “QUINOLINONE DERIVATIVES USEFUL FOR THE TREATMENT OF CNS DISORDERS” (NEUROSEARCH A/S, priority 2009, published 2012)

Assays:
[1] = system: Psychomotor seizures induced via corneal stimulation (6 Hz); assay: 6 Hz electroshock seizure model (anticonvulsant properties); type: in vivo; details: Mus musculus, po, 32 mA, 3 s corneal stimulation, p.o., pretreatment time 60 mins, vehicle 5% cremaphor, female NMRI mice, read-out: ED50 (dose that would give a 50% protection from seizures)
Description: The animal models being used for the discovery of novel antiepileptic drugs are numerous. Among these, a low frequency (6 Hz) electroshock seizure model has recently come into the limelight as a potential model of pharmacoresistant epilepsy (see Epilepsy: a comprehensive textbook, pag. 1477, by Jerome Engel, Timothy A. Pedley, Jean Aicardi, Marc A Dichter, Solomon Moshé—2007—Medical), and it is therefore an animal model of primary interest in antiepileptic drug discovery. The compounds of the invention have shown remarkable activity to protect against 6 Hz seizures.
The evaluation of the anticonvulsant properties was carried out in female NMRI mice (20-25 g, Taconic, Denmark). The mice were housed in groups (8 per cage according to weight) with food and water available ad libitum The environment was temperature (20±2° C.) and humidity (55±15%) controlled, and consisted of a 12:12 h light-dark cycle (lights on 06:00 h). The experiments were performed according to the Danish Committee for Experiments on Animals. […]
For screening purposes, the test compound was tested at 1 dose at 1 time-point. In the case of protection of 3 or more out of 8 mice, the compound were further evaluated in dose response (N=8/group). […]

| Compound | melting point | ED50 [1] |
| --- | --- | --- |
| NC(=O)Cn1c(=O)ccc2cc(Cl)ccc21 [Compound 4, 2-(6-chloro-2-oxo-1-quinolyl)acetamide] | 159.4 to 160.9 °C | – |
| NC(=O)Cn1c(=O)ccc2cccc(Cl)c21 [Compound 5, 2-(8-chloro-2-oxo-1-quinolyl)acetamide] | 166.5 to 167.6 °C | – |
| CCC(C(N)=O)n1c(=O)ccc2cccc(Cl)c21 (stereo not drawn) [Compound 6, 2-(8-chloro-2-oxo-1-quinolyl)butanamide] | 127 to 128 °C | – |
| CCC(C(N)=O)n1c(=O)ccc2cc(Cl)ccc21 (stereo not drawn) [Compound 7, 2-(6-chloro-2-oxo-1-quinolyl)butanamide] | 127.5 to 128.8 °C | – |
| CCC(C(N)=O)n1c(=O)ccc2cccc(Br)c21 (stereo not drawn) [Compound 8, 2-(8-bromo-2-oxo-1-quinolyl)butanamide] | 124.2 to 125.5 °C | – |

Continued, in another order:

| melting point | Compound | ED50 [1] |
| --- | --- | --- |
| 256.6 to 257.5 °C | NC(=O)Cn1c(=O)ccc2cc(Br)ccc21 [Compound 1, 2-(6-Bromo-2-oxo-1-quinolyl)acetamide] | 16 mg/kg |
| 138.5 to 140 °C | CCC(C(N)=O)n1c(=O)ccc2cc(Br)ccc21 (stereo not drawn) [Compound 2, 2-(6-bromo-2-oxo-1-quinolyl)butanamide] | – |
| 158.5 to 160 °C | NC(=O)Cn1c(=O)ccc2cccc(Br)c21 [Compound 3, 2-(8-bromo-2-oxo-1-quinolyl)acetamide] | – |
